In patent US20200390793A1, “COMPOSITIONS AND METHODS USING OLEUROPEIN OR CURCUMIN FOR MUSCLE QUALITY AND/OR MUSCLE MASS” (SOCIETE DES PRODUITS NESTLE S.A., priority 2017, published 2020):

System: old rats
Experiment: Dietary polyphenol supplementation for 3 months in 20 months-old rats: muscle mass and muscle fiber area (immunofluorescence staining and microscopy)
Format: in vivo
Details: supplemented diet for 3 months, compared with control and rutin groups
Description: 20 months-old rats were fed either a control diet or the same diet supplemented with curcumin or rutin or oleuropein for 3 months. CON=control diet, RUT=control diet with rutin, OLE=control diet with oleuropein and CUR=control diet with curcumin. Old rats are a good model to assess the effect of nutritional intervention in age related muscle decline. With this model, it can be observed as in human a decrease in muscle mass and function and a change in muscle quality with age. The objective of the study was to determine the effects of curcumin, oleuropein and rutin on muscle quality in old rats and the association with muscle mass. 20 months-old rats have been divided in four groups and received a complete diet supplemented with either curcumin (CUR), oleuropein (OLE) or rutin (RUT) for 3 months. A control group (CON) received cellulose instead of polyphenols. Fiber type was analyzed in muscle by immunofluorescence staining and microscopy. Exact Wilcoxon test associated with Hodges-Lehmann to estimate the difference between groups and Kolmogorov-Smirnov test to assess the difference for the distribution have been performed for statistical analysis.

COc1cc(/C=C/C(=O)CC(=O)/C=C/c2ccc(O)c(OC)c2)ccc1O [CUR, curcumin]
amount of small fibers area (percentage of cells with an area below 700 μm^2, FIG. 3B): lower | fiber crossectionnal area (FIG. 3A): higher | muscle mass: higher
